System: KRAS PDC tumor spheroids (HUVEC+MSC), viability
Experiment: Anticancer human tumor 254851-301-R-J1-PDC patient-derived colon carcinoma cell line growth inhibition [KRAS2]
Settings: for IC50: curve of first compound; for viability, T/C: stronger effect = lower value
Outline: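 KRAS-mutant tumor cells were grown as spheroids with HUVEC endothelial cells and human MSCs as stroma. Targeted agents were tested alone and with KRAS pathway inhibitors. Doses started at or near clinical Cmax, or 10 microM, descending half-log.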

[1] = second compound 0.1 µM, first compound 0.0316 µM
[2] = second compound 0.1 µM, first compound 0.1 µM
[3] = second compound 0.1 µM, first compound 0.316 µM
[4] = second compound 0.1 µM, first compound 1 µM
[5] = second compound 0.1 µM, first compound 3.16 µM
[6] = second compound 0.1 µM, first compound 10 µM
[7] = second compound 0.316 µM, first compound 0.0316 µM
[8] = second compound 0.316 µM, first compound 0.1 µM
[9] = second compound 0.316 µM, first compound 0.316 µM
[10] = second compound 0.316 µM, first compound 1 µM
[11] = second compound 0.316 µM, first compound 3.16 µM
[12] = second compound 0.316 µM, first compound 10 µM
[13] = second compound 1 µM, first compound 0.0316 µM
[14] = second compound 1 µM, first compound 0.1 µM
[15] = second compound 1 µM, first compound 0.316 µM
[16] = second compound 1 µM, first compound 1 µM
[17] = second compound 1 µM, first compound 3.16 µM
[18] = second compound 1 µM, first compound 10 µM
[19] = second compound 3.16 µM, first compound 0.0316 µM
[20] = second compound 3.16 µM, first compound 0.1 µM
[21] = second compound 3.16 µM, first compound 0.316 µM
[22] = second compound 3.16 µM, first compound 1 µM
[23] = second compound 3.16 µM, first compound 3.16 µM
[24] = second compound 3.16 µM, first compound 10 µM
[25] = second compound 10 µM, first compound 0.0316 µM
[26] = second compound 10 µM, first compound 0.1 µM
[27] = second compound 10 µM, first compound 0.316 µM
[28] = second compound 10 µM, first compound 1 µM
[29] = second compound 10 µM, first compound 3.16 µM
[30] = second compound 10 µM, first compound 10 µM
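Note: spheroids exposed to compounds for seven days before readout.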
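Throughout, for viability, T/C: 100% = DMSO vehicle control luminescence of the spheroids.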

SMILES	IC50 (second compound 0.1 µM)	IC50 (second compound 0.316 µM)	IC50 (second compound 1 µM)	IC50 (second compound 3.16 µM)	IC50 (second compound 10 µM)	viability, T/C [1]	viability, T/C [2]	viability, T/C [3]	viability, T/C [4]	viability, T/C [5]	viability, T/C [7]	viability, T/C [8]	viability, T/C [9]	viability, T/C [10]	viability, T/C [11]	viability, T/C [13]	viability, T/C [14]	viability, T/C [15]	viability, T/C [16]	viability, T/C [17]	further results
COc1cc2nccc(Oc3ccc(NC(=O)C4(C(=O)Nc5ccc(F)cc5)CC4)cc3)c2cc1OC + CC1OCC2(CCN(c3cnc(Sc4ccnc(N)c4Cl)c(N)n3)CC2)C1N	9270 nM	9860 nM	6690 nM	> 10000 nM	6020 nM	100%	103%	95.6%	112%	102%	98.7%	112%	100%	90.5%	84.4%	85.2%	92.4%	91.7%	80.3%	71.6%	viability, T/C [6]: 46.3%; viability, T/C [12]: 48.7%; viability, T/C [18]: 38.7%; viability, T/C [19]: 69.7%; viability, T/C [20]: 84.4%; viability, T/C [21]: 82.3%; viability, T/C [22]: 72.1%; viability, T/C [23]: 62.3%; viability, T/C [24]: 56.5%; viability, T/C [25]: 77.8%; viability, T/C [26]: 75.6%; viability, T/C [27]: 74.4%; viability, T/C [28]: 68.1%; viability, T/C [29]: 63.9%; viability, T/C [30]: 40.2%
Cn1nccc1Nc1nccc(-c2cc3c(s2)C(C)(C)N(CCN2CCOCC2)C3=O)n1 + COc1cc2nc(C)nc(NC(C)c3cc(N)cc(C(F)(F)F)c3)c2cc1OC1CCOC1	1970 nM	1810 nM	1530 nM	564 nM	445 nM	101%	97%	82.6%	71.5%	35.9%	98.4%	83.2%	77.2%	74.3%	29.1%	85.5%	86.7%	72.7%	70%	17.6%	viability, T/C [6]: 3.63%; viability, T/C [12]: 3.95%; viability, T/C [18]: 4.11%; viability, T/C [19]: 87.8%; viability, T/C [20]: 80.2%; viability, T/C [21]: 66.5%; viability, T/C [22]: 35%; viability, T/C [23]: 4.08%; viability, T/C [24]: 2.21%; viability, T/C [25]: 72.2%; viability, T/C [26]: 71.2%; viability, T/C [27]: 56.9%; viability, T/C [28]: 31.1%; viability, T/C [29]: 2.79%; viability, T/C [30]: 1.54%
CC1COCCN1c1cc(-c2ccnn2C)c2ccnc(-c3ccn[nH]3)c2n1 (stereo not given) + CC1OCC2(CCN(c3cnc(Sc4ccnc(N)c4Cl)c(N)n3)CC2)C1N	303 nM	323 nM	315 nM	165 nM	152 nM	107%	75.5%	48.6%	36.4%	24.5%	101%	83.5%	49.8%	33%	24.4%	89.8%	79%	47.1%	34.6%	21.2%	viability, T/C (second compound 0.1 µM, first compound 0.01 µM): 114%; viability, T/C (second compound 0.316 µM, first compound 0.01 µM): 90.5%; viability, T/C (second compound 1 µM, first compound 0.01 µM): 88.7%; viability, T/C (second compound 3.16 µM, first compound 0.01 µM): 69.2%; viability, T/C [19]: 74.8%; viability, T/C [20]: 57%; viability, T/C [21]: 39.2%; viability, T/C [22]: 23.1%; viability, T/C [23]: 21.9%; viability, T/C (second compound 10 µM, first compound 0.01 µM): 67.1%; viability, T/C [25]: 65.8%; viability, T/C [26]: 58.3%; viability, T/C [27]: 35.8%; viability, T/C [28]: 27.2%; viability, T/C [29]: 20%
